Laboratory results reported in ChEMBL document CHEMBL1128013, “The synthesis and biological activity of tetrahydroquinoline angiotensin II antagonists containing a substituted biphenyltetrazole group” (Bioorg Med Chem Lett, 1994).

Tests used:
[1] = target: T1, Type-1 angiotensin II receptor (Cavia porcellus, UniProt Q9WV26); test: Compound was tested for in vitro inhibition of specific binding of [I-125]AII to Angiotensin II receptor, type 1 in guinea pig adrenal membrane preparation; type: cell membranes
T1 sequence (Q9WV26 whole entry): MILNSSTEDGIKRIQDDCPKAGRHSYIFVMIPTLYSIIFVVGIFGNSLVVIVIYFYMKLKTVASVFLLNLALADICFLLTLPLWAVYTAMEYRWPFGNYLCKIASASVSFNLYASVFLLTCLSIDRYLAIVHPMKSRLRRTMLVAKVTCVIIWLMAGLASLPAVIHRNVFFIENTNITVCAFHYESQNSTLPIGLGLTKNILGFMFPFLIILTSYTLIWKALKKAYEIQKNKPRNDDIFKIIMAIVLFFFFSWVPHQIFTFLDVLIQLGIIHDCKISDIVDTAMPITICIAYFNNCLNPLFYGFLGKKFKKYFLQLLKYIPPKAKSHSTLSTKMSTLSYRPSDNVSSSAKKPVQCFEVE

Rattus norvegicus = test: Tested in vivo for inhibition of pressor response induced by infusion of AII in conscious normotensive rats, when given intravenously; type: functional, organism-based
[2] = target: T1, Type-1 angiotensin II receptor; test: Compound was tested for in vitro inhibition of specific binding of [I-125]AII to AT1 receptor in guinea pig adrenal membrane preparation; type: cell membranes

| IC50 [1] [µM] | EC50 (Rattus norvegicus) [mg/kg] | IC50 [2] [µM] | Structure (SMILES) |
| --- | --- | --- | --- |
| 0.067 |  |  | CCc1cc(OCc2ccc(-c3cc(OC)ccc3-c3nn[nH]n3)cc2)c2c(n1)CCCC2 |
| 0.009 | 0.22 |  | CCc1cc(OCc2ccc(-c3ccccc3-c3nn[nH]n3)cc2F)c2c(n1)CCCC2 |
| 0.054 |  |  | CCc1cc(OCc2ccc(-c3ccc(C)cc3-c3nn[nH]n3)cc2)c2c(n1)CCCC2 |
|  | 0.39 | 0.008 | CCc1cc(OCc2ccc(-c3ccccc3-c3nn[nH]n3)c(OC)c2)c2c(n1)CCCC2 |
|  | 0.65 |  | CCCCc1nc(Cl)c(CO)n1Cc1ccc(-c2ccccc2-c2nnn[nH]2)cc1 [LOSARTAN] |

Continued, molecule first:

| Structure (SMILES) | IC50 [1] [µM] | EC50 (Rattus norvegicus) [mg/kg] | IC50 [2] [µM] |
| --- | --- | --- | --- |
| CCc1cc(OCc2ccc(-c3ccccc3-c3nn[nH]n3)cc2)c2c(n1)CCCC2 | 0.005 | 0.39 |  |
| CCc1cc(OCc2ccc(-c3ccccc3-c3nn[nH]n3)c(C(=O)OC)c2)c2c(n1)CCCC2 |  | 0.11 | 0.02 |
| CCc1cc(OCc2ccc(-c3ccc(OC)cc3-c3nnn[nH]3)cc2)c2c(n1)CCCC2 | 0.14 |  |  |
| CCc1cc(OCc2ccc(-c3c(C)cccc3-c3nn[nH]n3)cc2)c2c(n1)CCCC2 | 0.029 | 0.48 |  |
| CCc1cc(OCc2ccc(-c3ccccc3-c3nn[nH]n3)c(C(C)=O)c2)c2c(n1)CCCC2 |  | 0.1 | 0.006 |
| CCc1cc(OCc2ccc(-c3ccc(Cl)cc3-c3nnn[nH]3)cc2)c2c(n1)CCCC2 | 0.093 |  |  |
| CCc1cc(OCc2ccc(-c3ccccc3-c3nn[nH]n3)c(C(=O)O)c2)c2c(n1)CCCC2 |  | 0.24 | 0.027 |
| CCc1cc(OCc2ccc(-c3ccccc3-c3nn[nH]n3)c(Cl)c2)c2c(n1)CCCC2 |  | 0.52 | 0.007 |
